{"source": "the supplement of paper PMC2824726", "note": "Values joined by “and” are separate entries in the source; they are usually repeats but may differ in a detail not shown here. Equal entries are not always repeated.", "data": [{"tested_on": "MDA-MB-231", "assay": "shRNA barcode abundance ratio t_end/t_zero (depletion over 4 weeks of proliferation) (log2 ratio); higher = less depletion (weaker anti-proliferative effect of the shRNA)", "details": "time after t zero 28 days", "description": "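Pooled lentiviral negative-selection screen of 305 pGIPZ shRNAs (Open Biosystems V2LHS clones; the 21-nt half-hairpin sense stem is embedded in a mir-30 scaffold) in MDA-MB-231 breast carcinoma cells, infected at MOI 0.3 with 0.5 ug/ml puromycin selection. Barcode abundance was read on barcode tiling microarrays (six 25-nt probes per 60-nt barcode) at t_zero (5 days post-infection) and t_end (33 days; 28 days of culture after t_zero). Values are median-normalised t_end/t_zero signal ratios, averaged over the tiling probes that passed a 10-fold background filter, from three biological replicates.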", "values": [{"sequence": "CCAGATTTCTTACCTACCATA (targeted gene: BIRC2)", "shRNA barcode abundance ratio t end/t zero (log2)": 0.213}, {"sequence": "CGAGACATTCGCATCAAATAT (targeted gene: NRG2)", "shRNA barcode abundance ratio t end/t zero (log2)": 0.219}, {"sequence": "GCAGCTTCCTTGAACCATTAT (targeted gene: SPHK1)", "shRNA barcode abundance ratio t end/t zero (log2)": -0.397}, {"sequence": "GCAAAGAATCTAGATGCAATA (targeted gene: IL6)", "shRNA barcode abundance ratio t end/t zero (log2)": "0.508 and 0.569"}, {"sequence": "GGAGTGCTCATTGTGAAGAAA (targeted gene: SORT1)", "shRNA barcode abundance ratio t end/t zero (log2)": -0.0388}, {"sequence": "CGTAAGATGATGGATTTGATT (targeted gene: BIRC5)", "shRNA barcode abundance ratio t end/t zero (log2)": 0.0401}, {"sequence": "CCAGTGACCTTCGCTCCACAT (targeted gene: BAD)", "shRNA barcode abundance ratio t end/t zero (log2)": 0.391}, {"sequence": "GGCCATTGTCACAGAGGATAA (targeted gene: MLH1)", "shRNA barcode abundance ratio t end/t zero (log2)": 0.62}, {"sequence": "GGCTTTGTCTTTACAGGTAAA (targeted gene: NAIP)", "shRNA barcode abundance ratio t end/t zero (log2)": 0.603}, {"sequence": "CCCGGGACTCCTGAGAACAAT (targeted gene: PRLR)", "shRNA barcode abundance ratio t end/t zero (log2)": -0.387}, {"sequence": "CCAGAGAATTTGCTTACCAAA (targeted gene: RALBP1)", "shRNA barcode abundance ratio t end/t zero (log2)": 0.116}, {"sequence": "CGCAAGAATCTGTTCCTAGTG (targeted gene: FAIM3)", "shRNA barcode abundance ratio t end/t zero (log2)": -0.255}, {"sequence": "GCTATCTCTCCTGAAGCAATA (targeted gene: BCL2A1)", "shRNA barcode abundance ratio t end/t zero (log2)": 0.264}, {"sequence": "GGATGTTGGAAATTACTATTA (targeted gene: HDAC1)", "shRNA barcode abundance ratio t end/t zero (log2)": 0.178}, {"sequence": "CCTTTGAAAGTGGGTGGAATT (targeted gene: TNFAIP3)", "shRNA barcode abundance ratio t end/t zero (log2)": 0.0769}, {"sequence": "CCATTTACAGCCATTTCTAAA (targeted gene: ESR1)", "shRNA barcode abundance ratio t end/t zero (log2)": 0.128}, {"sequence": "GCTGAAGTACAGGACAATTAT (targeted gene: TAX1BP1)", "shRNA barcode abundance ratio t end/t zero (log2)": 0.181}, {"sequence": "GGTAAAGATGGCAAACAATAT (targeted gene: IL7)", "shRNA barcode abundance ratio t end/t zero (log2)": 0.391}, {"sequence": "GCAGCTTCAGGTTTACTCAAA (targeted gene: CD28)", "shRNA barcode abundance ratio t end/t zero (log2)": 0.127}, {"sequence": "CGAGCCCTGGACACCAACTAT (targeted gene: TGFB1)", "shRNA barcode abundance ratio t end/t zero (log2)": 0.183}, {"sequence": "GGTGTCTTTACCAAACTTATT (targeted gene: HSPA9)", "shRNA barcode abundance ratio t end/t zero (log2)": -0.751}, {"sequence": "CCACGCGACATCCAATCCATA (targeted gene: IL3)", "shRNA barcode abundance ratio t end/t zero (log2)": -0.0678}, {"sequence": "GGACAGTGCTTGATACAGGAA (targeted gene: PIM1)", "shRNA barcode abundance ratio t end/t zero (log2)": 0.128}, {"sequence": "CGTTATTAACTTGTTATTTAG (targeted gene: API5)", "shRNA barcode abundance ratio t end/t zero (log2)": 0.468}, {"sequence": "GCTGTGGTTAATTACACATTA (targeted gene: ACVR1)", "shRNA barcode abundance ratio t end/t zero (log2)": -0.208}, {"sequence": "GCCTATATCAGCAATTGTCAT (targeted gene: ATM)", "shRNA barcode abundance ratio t end/t zero (log2)": -0.178}, {"sequence": "GCAGGTATTTGACATATTAAA (targeted gene: NFKB1)", "shRNA barcode abundance ratio t end/t zero (log2)": 0.38}, {"sequence": "CCTTAGCAATGTCTTAGGAAA (targeted gene: BIRC5)", "shRNA barcode abundance ratio t end/t zero (log2)": -2.27}, {"sequence": "GGATATTGAACAGAGTATTAA (targeted gene: ANXA4)", "shRNA barcode abundance ratio t end/t zero (log2)": -0.0211}, {"sequence": "GCATGTTATGTTGTTCTTATT (targeted gene: XIAP)", "shRNA barcode abundance ratio t end/t zero (log2)": 0.25}, {"sequence": "CCTCCCTCTCAGAACCAATAA (targeted gene: DDAH2)", "shRNA barcode abundance ratio t end/t zero (log2)": -0.269}, {"sequence": "GGCCTTGGAACTGATGAAGAT (targeted gene: ANXA1)", "shRNA barcode abundance ratio t end/t zero (log2)": 0.259}, {"sequence": "CCATAGCAAGGCCTAATGTTA (targeted gene: FANCF)", "shRNA barcode abundance ratio t end/t zero (log2)": 0.00383}, {"sequence": "GGCATTAGTTTCTCAGTTAAA (targeted gene: MLH1)", "shRNA barcode abundance ratio t end/t zero (log2)": 0.141}, {"sequence": "GGTCTTACTGAAGTAACACAA (targeted gene: TAX1BP1)", "shRNA barcode abundance ratio t end/t zero (log2)": 0.346}, {"sequence": "AGACATAAAGCCATCTCTTAT (targeted gene: NME5)", "shRNA barcode abundance ratio t end/t zero (log2)": 0.11}, {"sequence": "GCAAATGGAATCTTTATGAAA (targeted gene: MALT1)", "shRNA barcode abundance ratio t end/t zero (log2)": 0.375}]}]}
